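Cells were grown in 96-well plates and exposed to each compound for 48 hours at five concentrations; endpoints were interpolated linearly between bracketing concentrations, or set to the highest concentration if not reached. Here, GI50 denotes the concentration required for 50% inhibition of growth.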 Active and inactive are the calls of the source. No stated cut-off is given here; in the data, active = GI50 up to about 1.1 µM and inactive = higher.
Columns and labels:
Experiment in all cases: NCI anticancer screen, dose series, 48 h
786-0 = tested on: 786-0
A498 = tested on: A498
A549 = tested on: A549
ACHN = tested on: ACHN
BT-549 = tested on: BT-549
CAKI-1 = tested on: CAKI-1
CCRF-CEM = tested on: CCRF-CEM
COLO 205 = tested on: COLO 205
DU-145 = tested on: DU-145
EKVX = tested on: EKVX
HCC 2998 = tested on: HCC 2998
HCT-116 = tested on: HCT-116
HCT-15 = tested on: HCT-15
HL-60 = tested on: HL-60
HOP-62 = tested on: HOP-62
HOP-92 = tested on: HOP-92
HT-29 = tested on: HT-29
Hs-578T = tested on: Hs-578T
IGROV-1 = tested on: IGROV-1
K562 = tested on: K562
KM12 = tested on: KM12
LOX IMVI = tested on: LOX IMVI
M14 = tested on: M14
MCF7 = tested on: MCF7
MDA-MB-231 = tested on: MDA-MB-231
MDA-MB-435 = tested on: MDA-MB-435
MDA-N = tested on: MDA-N
MOLT-4 = tested on: MOLT-4
Malme-3M = tested on: Malme-3M
NCI-H226 = tested on: NCI-H226
NCI-H23 = tested on: NCI-H23
NCI-H460 = tested on: NCI-H460
NCI-H522 = tested on: NCI-H522
NCI/ADR-RES = tested on: NCI/ADR-RES
OVCAR-3 = tested on: OVCAR-3
OVCAR-4 = tested on: OVCAR-4
OVCAR-5 = tested on: OVCAR-5
OVCAR-8 = tested on: OVCAR-8
PC-3 = tested on: PC-3
RPMI-8226 = tested on: RPMI-8226
RXF 393 = tested on: RXF 393
SF-268 = tested on: SF-268
SF-295 = tested on: SF-295
SF-539 = tested on: SF-539
SK-MEL-28 = tested on: SK-MEL-28
SK-MEL-2 = tested on: SK-MEL-2
SK-MEL-5 = tested on: SK-MEL-5
SK-OV-3 = tested on: SK-OV-3
SN12C = tested on: SN12C
SNB-19 = tested on: SNB-19
SNB-75 = tested on: SNB-75
SR = tested on: SR
SW-620 = tested on: SW-620
T47D = tested on: T47D
TK-10 = tested on: TK-10
U-251 = tested on: U-251
UACC-257 = tested on: UACC-257
UACC-62 = tested on: UACC-62
UO-31 = tested on: UO-31

With `Cc1c2cccc(Sc3ccccc3)c2c2c3c(cccc13)[S+](c1ccccc1)C2` (centres undefined) the GI50 (786-0) was 2980 nM (inactive), the GI50 (A498) was 2650 nM (inactive) and the GI50 (A549) was 2880 nM (inactive). For the same compound, the GI50 (ACHN) was 4040 nM (inactive), the GI50 (BT-549) was 2140 nM (inactive) and the GI50 (CAKI-1) was 3190 nM (inactive). For the same compound, the GI50 (CCRF-CEM) was 1770 nM (inactive), the GI50 (COLO 205) was 923 nM (active) and the GI50 (DU-145) was 3780 nM (inactive). The GI50 (EKVX) was 2710 nM (inactive), the GI50 (HCC 2998) was 1660 nM (inactive) and the GI50 (HCT-116) was 2060 nM (inactive). The GI50 (HCT-15) was 10400 nM, the GI50 (HL-60) was 935 nM (active) and the GI50 (HOP-62) was 1890 nM (inactive). For the same compound, the GI50 (HOP-92) was 2030 nM (inactive), the GI50 (HT-29) was 1470 nM (inactive) and the GI50 (Hs-578T) was 2740 nM (inactive). For the same compound, the GI50 (IGROV-1) was 2340 nM (inactive), the GI50 (K562) was 408 nM (active) and the GI50 (KM12) was 1160 nM (inactive). For the same compound, the GI50 (LOX IMVI) was 1720 nM (inactive), the GI50 (M14) was 2080 nM (inactive) and the GI50 (MCF7) was 1330 nM (inactive). The GI50 (MDA-MB-231) was 2160 nM (inactive), the GI50 (MDA-MB-435) was 1750 nM (inactive) and the GI50 (MDA-N) was 2280 nM (inactive). The GI50 (MOLT-4) was 1650 nM (inactive), the GI50 (Malme-3M) was 1800 nM (inactive) and the GI50 (NCI-H226) was 2330 nM (inactive). The GI50 (NCI-H23) was 1820 nM (inactive), the GI50 (NCI-H460) was 1580 nM (inactive) and the GI50 (NCI-H522) was 684 nM (active). For the same compound, the GI50 (NCI/ADR-RES) was 28600 nM (inactive), the GI50 (OVCAR-3) was 659 nM (active) and the GI50 (OVCAR-4) was 1980 nM (inactive). For the same compound, the GI50 (OVCAR-5) was 3030 nM (inactive), the GI50 (OVCAR-8) was 2670 nM (inactive) and the GI50 (PC-3) was 2060 nM (inactive). The GI50 (RPMI-8226) was 221 nM (active), the GI50 (RXF 393) was 3860 nM (inactive) and the GI50 (SF-268) was 3130 nM (inactive). The GI50 (SF-295) was 1780 nM (inactive), the GI50 (SF-539) was 2630 nM (inactive) and the GI50 (SK-MEL-28) was 2580 nM (inactive). The GI50 (SK-MEL-2) was 1500 nM (inactive), the GI50 (SK-MEL-5) was 748 nM (active) and the GI50 (SK-OV-3) was 1840 nM (inactive). The GI50 (SN12C) was 2240 nM (inactive), the GI50 (SNB-19) was 1730 nM (inactive) and the GI50 (SNB-75) was 1940 nM (inactive). For the same compound, the GI50 (SR) was 838 nM (active), the GI50 (SW-620) was 3260 nM (inactive) and the GI50 (T47D) was 526 nM (active). For the same compound, the GI50 (TK-10) was 2670 nM (inactive), the GI50 (U-251) was 1500 nM (inactive) and the GI50 (UACC-257) was 594 nM (active). The GI50 (UACC-62) was 1660 nM (inactive) and the GI50 (UO-31) was 2950 nM (inactive).
